This data set deals with rats. Put plainly: edematogenic test of Schmidt, et al. The conditions noted are these: 1.5 mg/kg s.c. once a day on two consecutive days; for 1st Day FR (full responders: facial edema with edematous extremities), rats / 1st Day PR (partial responders: edema of the nasal and paranasal area), rats / 1st Day NR (no apparent reaction), rats: day 1; for 2nd Day FR (full responders: facial edema with edematous extremities), rats / 2nd Day NR (no apparent reaction), rats / 2nd Day PR (partial responders: edema of the nasal and paranasal area), rats: day 2; for 1st Day NR (no apparent reaction), rats: observed five hours each day. The data set is classed as in vivo, rat. The procedure:
In the edematogenic test of Schmidt, et al. (Contraception, 29, 283-289, 1984), however, a marked difference can be found between the control peptides and the peptides of the present invention. The control peptides produce edema of the face and extremities when administered subcutaneously in rats at doses of 0.75 or 1.25 mg/kg. No such reaction can be observed with the peptides of the present invention when given at a subcutaneous dose of 1.5 mg/kg.
In the tests as run the rats were assigned to three groups of five rats per group per compound tested. Comparison with made with a known prior art compound designated ORG 30276 namely (N-Ac-D-p-Cl-Phe^1,2, D-Trp^3, D-Arg^6, D-Ala^10)-LHRH. The groups were injected subcuntaneously once a day on two consecutive days with the LHRH antagonists at a dose level of 1.5 mg/kg. One control group was injected with diluent only. The rats were observed during five hours each day. Reactions of the rats were classified as follows: NR no apparent reaction, PR partial responders: edema of the nasal and paranasal area, FR full responders: facial edema with edematous extremities.

Where “and” joins values, the source holds several entries; their conditions need not be identical. Equal entries are not always repeated. *1 amine or outer side, *2 acyl side, *3 side chain or, on linkers, in order; H or OH if unused. Where a SMILES comes first, the peptide text is derived from it. Side-chain parts run from the residue outwards. [ ]: non-standard residue; d: D form. dPhe(4-Cl) = N[C@H](Cc1ccc(Cl)cc1)C(=O)O; d2Nal = N[C@H](Cc1ccc2ccccc2c1)C(=O)O; d(hCit) = NC(=O)NCCCC[C@@H](N)C(=O)O; dCit = NC(=O)NCCC[C@@H](N)C(=O)O; dOrn = NCCC[C@@H](N)C(=O)O; CO = O=C([*:1])[*:2]

As to “Ac-[d2Nal][dPhe(4-Cl)][dW]SY[d(hCit)]RP[dA]-NH2 [EX I]”, the “1st Day FR (full responders: facial edema with edematous extremities), rats” value (shortened to “1st Day FR”) worked out at 0; the “1st Day PR (partial responders: edema of the nasal and paranasal area), rats” value (from here on “1st Day PR”) was 0; the “2nd Day FR (full responders: facial edema with edematous extremities), rats” value (“2nd Day FR” for short) is listed as 0; the “2nd Day NR (no apparent reaction), rats” value came out at 8. Besides, the “2nd Day PR (partial responders: edema of the nasal and paranasal area), rats” value (shortened to “2nd Day PR”) is given as 0; the “1st Day NR (no apparent reaction), rats” value stood at 8.
`CC(=O)N[C@H](Cc1ccc2ccccc2c1)C(=O)N[C@H](Cc1ccc(Cl)cc1)C(=O)N[C@H](Cc1c[nH]c2ccccc12)C(=O)N[C@@H](CO)C(=O)N[C@@H](Cc1ccc(O)cc1)C(=O)N[C@H](CCCNC(N)=O)C(=O)N[C@@H](CC(C)C)C(=O)N[C@@H](CCCNC(=N)N)C(=O)N1CCC[C@H]1C(=O)N[C@H](C)C(N)=O` [EX III, Ac-D-Nal(2)-D-Phe(4-Cl)-D-Trp-Ser-Tyr-D-Cit-Leu-Arg-Pro-D-Ala-NH^2] (Ac-[d2Nal][dPhe(4-Cl)][dW]SY[dCit]LRP[dA]-NH2): the “1st Day FR” value worked out at 0; the “1st Day PR” value is given as 0; the “1st Day NR (no apparent reaction), rats” value came out at 8.
In the case of `CC(=O)N[C@H](Cc1ccc(Cl)cc1)C(=O)N[C@H](Cc1ccc(Cl)cc1)C(=O)N[C@H](Cc1c[nH]c2ccccc12)C(=O)N[C@@H](CO)C(=O)N[C@@H](Cc1ccc(O)cc1)C(=O)N[C@H](CCCNC(=N)N)C(=O)N[C@@H](CC(C)C)C(=O)N[C@@H](CCCNC(=N)N)C(=O)N1CCC[C@H]1C(=O)N[C@H](C)C(N)=O` [ORG 30276, (N-Ac-D-p-Cl-Phe^1,2, D-Trp^3, D-Arg^6, D-Ala^10)-LHRH, reference compound] (Ac-[dPhe(4-Cl)][dPhe(4-Cl)][dW]SY[dR]LRP[dA]-NH2), the “1st Day FR” value was 0; the “1st Day PR” value is 5 and 3; the “2nd Day FR” value was 6 and 3; the “2nd Day PR” value is 2 and 1.
Consider `CCNC(=O)NCCC[C@@H](NC(=O)[C@H](Cc1ccc(O)cc1)NC(=O)[C@H](CO)NC(=O)[C@@H](Cc1c[nH]c2ccccc12)NC(=O)[C@@H](Cc1ccc(Cl)cc1)NC(=O)[C@@H](Cc1ccc2ccccc2c1)NC(C)=O)C(=O)N[C@@H](CC(C)C)C(=O)N[C@@H](CCCNC(=N)N)C(=O)N1CCC[C@H]1C(=O)N[C@H](C)C(N)=O` [EX IV, Ac-D-Nal(2)-D-Phe(4-Cl)-D-Trp-Ser-Tyr-D-Cit(Et)-Leu-Arg-Pro-D-Ala-NH2] (Ac-[d2Nal][dPhe(4-Cl)][dW]SY[dOrn]([CO-NHEt])LRP[dA]-NH2), for which the “1st Day FR” value was 0; the “1st Day PR” value was 0; the “2nd Day FR” value worked out at 0; the “2nd Day NR (no apparent reaction), rats” value was determined as 9. Also, the “2nd Day PR” value is 0; the “1st Day NR (no apparent reaction), rats” value is on record as 9.
Turning to `CC(=O)N[C@H](Cc1ccc(Cl)cc1)C(=O)N[C@H](Cc1ccc(Cl)cc1)C(=O)N[C@H](Cc1c[nH]c2ccccc12)C(=O)N[C@@H](CO)C(=O)N[C@@H](Cc1ccc(O)cc1)C(=O)N[C@H](CCCCNC(N)=O)C(=O)N[C@@H](CC(C)C)C(=O)N[C@@H](CCCNC(=N)N)C(=O)N1CCC[C@H]1C(=O)N[C@H](C)C(N)=O` [EX V, Ac-D-Phe(4-Cl)-D-Phe(4-Cl)-D-Trp-Ser-Tyr-D-Hci-Leu-Arg-Pro-D-Ala-NH2] (Ac-[dPhe(4-Cl)][dPhe(4-Cl)][dW]SY[d(hCit)]LRP[dA]-NH2), the “1st Day FR” value was determined as 0; the “1st Day PR” value is 0; the “2nd Day FR” value stood at 0; the “2nd Day NR (no apparent reaction), rats” value is recorded as 8. Further, the “2nd Day PR” value was 1; the “1st Day NR (no apparent reaction), rats” value is 9.

Values taken from patent US4800191A, “LHRH antagonists” (priority 1987, dated 1989).
